Data published in patent publication US8106099B2, “Combination of phenylcarboxamides with blockers of the IKr channel and their use for the treatment of atrial arrhythmias” (Sanofi-Aventis Deutschland GmbH, priority 2003, dated 2012).
“Also recorded” adds a separate entry of the source.

Legend:
[1] = tested on: normal and remodeled atria of goats; test: Investigation of the refractory period (AERP) in normal goats and in goats with remodeled atria; format: in vivo; settings: for effect on the AERP in remodeled atrium compared with normal atrium: remodeled versus normal atrium
Procedure: Investigation of the Refractory Period in Normal Goats and in Goats with Remodeled Atria
This electrical remodeling, which reflects the situation in the patient, was achieved by repetitive atrial stimulations as published by Wijffels et al. (Atrial fibrillation begets atrial fibrillation. A study in awake chronical instrumented goats. Circulation 1995, 92, 1954-68).
In the monotherapy, 0.12 mg of ibutilide per kg of bodyweight was administered over the length of time of 60 minutes (0.002 mg per kg per minute).
A similar infusion scheme was carried out on 5 further animals with dofetilide instead of ibutilide. […] In the monotherapy, 0.12 mg of dofetilide per kg of bodyweight was administered over the length of time of 60 minutes (0.002 mg per kg per minute).

[2] = tested on: goats in persistent atrial fibrillation; test: Investigation of cardioversion and AFCL in chronically fibrillating goats (two goats); format: in vivo; settings: for effect on the AFCL by the substance on its own (in words) / cardioversion / termination of persistent fibrillation by the substance on its own: persistent AF goat model; for cardioversion / termination of persistent fibrillation by the substance on its own: example 1 at 0.1-10 mg/kg/h in the goat of table 4
Procedure: Investigation of Cardioversion in Chronically Fibrillating Goats
Experiments were carried out on two goats which were in persistent atrial fibrillation of more than 45 days.
The measurements of the AFCL and of the cardioversion were carried out successively.

| SMILES | prolongation of the AERP ([1]; remodeled atria, n=7 goats, ibutilide study) [ms] | effect on the AERP in remodeled atrium compared with normal atrium [1] | effect on the AFCL by the substance on its own (in words) [2] | cardioversion / termination of persistent fibrillation by the substance on its own [2] | effect on the AFCL by the substance on its own (in words) ([2]; listed as ibutilide) | prolongation of the AERP ([1]; normal atria, n=5 goats, dofetilide study) [ms] | prolongation of the AERP ([1]; normal atria, n=7 goats, ibutilide study, relative to control before administration) [ms] | effective atrial refractory period (AERP), mean value ± SD ([1]; remodeled atria (induced AF 1 to 4 days), 7 goats, cycle length 400 ms, same infusion scheme with ibutilide) [ms] | doses of the compound of example 1 that brought about cardioversion / termination of the atrial fibrillation ([2]; goat of table 3, monotherapy, or combination with ibutilide 2 mg/kg) | dose of the Kv1.5 blocker of example 1 leading to cardioversion / termination of persistent fibrillation ([2]; summary in description, combination with very low doses (for example 10 μg/kg) of the IKr channel blocker) [mg/kg] | prolongation of the AERP ([1]; remodeled atria, n=5 goats, dofetilide study) [ms] |
| --- | --- | --- | --- | --- | --- | --- | --- | --- | --- | --- | --- |
| CCCCCCCN(CC)CCCC(O)c1ccc(NS(C)(=O)=O)cc1.O=C(O)/C=C/C(=O)O (centres unmarked) [Ibutilide] | 5 | markedly lower | very small increase | not to a termination of the fibrillation | slight prolongation |  |  |  |  |  |  |
| COc1ccc(CC(=O)NCc2ccccc2-c2ccccc2C(=O)NCCc2cccnc2)cc1 [Example 1, 2′-{[2-(4-Methoxyphenyl)acetylamino]methyl}biphenyl-2-carboxylic acid (2-pyridin-3-ylethyl)amide] |  | markedly greater | dose-dependent increase | not to cardioversion |  | 51 | 47 | 160 ± 16 | 10 mg per kg of bodyweight per ho | 10 |  |
| CN(CCOc1ccc(NS(C)(=O)=O)cc1)CCc1ccc(NS(C)(=O)=O)cc1 [Dofetilide] |  | markedly lower | slight prolongation | a cardioversion does not occur; also recorded: not to a termination of the fibrillation |  |  |  |  |  |  | 7 |
